Source: patent US20260256871A1, “COMPOSITIONS AND METHODS FOR TREATMENT OF SUBJECTS SUFFERING FROM A SARS-COV-2 INFECTION” (priority 2022, published 2026)
Entries after “also recorded” stand apart in the source; their conditions may differ. Counter-ions that a name gives are not always drawn. Like-named read-outs stand apart in the source and are kept apart here.

Legend:
cells = settings: due to the very low pH; cited from earlier work
SARS-CoV2 [1] = type: cell-based; settings: for viral load: antioxidants NAC and SFN; for inhibition of SARS-CoV2 replication in HBECs (viral copy number): camostat basolateral
16HBE cells = experiment: Cytotoxicity, CytoTox 96 LDH release assay; settings: for cytotoxicity (LDH release) at maximum concentration used in antiviral assays: 72 h, camostat 125 μM, HA 0.7%, BAPTA-AM 10 uM, allopurinol 400 μM, NAC 100 mM, SFN 10 μM, ivacaftor, PAAG at maximum; for toxicity values (percent of maximum toxicity): Allopurinol 400 uM, NAC 50 mM, SFN 5 uM, 72 hours
SARS-CoV2 [2] = experiment: Protection against SARS-CoV2 in Vero cells; type: cell-based

N[C@@H](CCC(=O)N[C@@H](CS)C(=O)NCC(=O)O)C(=O)O [glutathione]
cytotoxicity of component alone (without bicarbonate buffer) (cells): cytotoxic

O=C1O[C@H]([C@@H](O)CO)C(O)=C1O [ascorbic acid]
cytotoxicity of component alone (without bicarbonate buffer) (cells): cytotoxic

CC(=O)N[C@@H](CS)C(=O)O [NAC, N-Acetyl-L-cysteine]
viral load (SARS-CoV2 [1]): reduction in the viral load | cytotoxicity (LDH release) at maximum concentration used in antiviral assays (16HBE cells): neither allopurinol, NAC nor SFN showed cytotoxicity | toxicity values (percent of maximum toxicity) (16HBE cells): negative values of toxicity

CC(C)(C)c1cc(C(C)(C)C)c(NC(=O)c2c[nH]c3ccccc3c2=O)cc1O [Ivacaftor, ivacaftor]
effect on SARS-CoV-2 replication (SARS-CoV2 [1]; ivacaftor basolateral, ≥10 μM, close to its maximum solubility): moderate effect | cytotoxicity (LDH release) at maximum concentration used in antiviral assays (16HBE cells): showed cytotoxicity

Oc1ncnc2[nH]ncc12 [allopurinol]
protection of HBECs from SARS-CoV2 infection (replication) (SARS-CoV2 [1]; allopurinol 400 uM, xanthine oxidase inhibition): significantly protected; also recorded: significantly blocks SARS-CoV2 replication | cytotoxicity (LDH release) at maximum concentration used in antiviral assays (16HBE cells): neither allopurinol, NAC nor SFN showed cytotoxicity | toxicity values (percent of maximum toxicity) (16HBE cells): negative values of toxicity

C[S+]([O-])CCCCN=C=S (stereo not shown) [SFN, sulforaphane]
viral load (SARS-CoV2 [1]): reduction in the viral load | cytotoxicity (LDH release) at maximum concentration used in antiviral assays (16HBE cells): neither allopurinol, NAC nor SFN showed cytotoxicity | toxicity values (percent of maximum toxicity) (16HBE cells): negative values of toxicity

CN(C)C(=O)COC(=O)Cc1ccc(OC(=O)c2ccc(NC(=N)N)cc2)cc1 [camostat mesylate]
protection against SARS-CoV2 (SARS-CoV2 [2]): partially protective | inhibition of SARS-CoV2 replication in HBECs (viral copy number) (SARS-CoV2 [1]; vs DMSO vehicle, 72 h): dose-dependent manner | inhibition of SARS-CoV2 replication in HBECs (viral copy number) (SARS-CoV2 [1]; vs DMSO vehicle, 72 h, listed as Camostat): significantly inhibited | inhibition of SARS-CoV2 infection (SARS-CoV2 [1]; camostat mesylate basolateral, concentrations higher than 16.62 μM, vs DMSO vehicle, 72 h): ~100% | cytotoxicity (LDH release) at maximum concentration used in antiviral assays (16HBE cells): not toxic

O=C([O-])O.[Na+] [bicarbonate alone, sodium bicarbonate]
antiviral activity of ARINA-1 components (SARS-CoV2 [1]): did not show significant activity
